From patent EP4782453A1 (Beyang Therapeutics Co., Ltd., priority 2023, dated 2025)
Like-named read-outs stand apart in the source and are kept apart here.

Tests used:
[1] = biological target: T1, Menin-MLL (Homo sapiens, UniProt O00255); assay: Inhibitory activity against Menin-MLL binding (fluorescence polarization); details: 150 nM His-Menin, 15 nM FITC-MLL, 25°C for 60 min
T1 construct: His-Menin (M1-L615 end); purchased BIORTUS BP9210
T1 sequence (O00255 1-615 isoform O00255-1): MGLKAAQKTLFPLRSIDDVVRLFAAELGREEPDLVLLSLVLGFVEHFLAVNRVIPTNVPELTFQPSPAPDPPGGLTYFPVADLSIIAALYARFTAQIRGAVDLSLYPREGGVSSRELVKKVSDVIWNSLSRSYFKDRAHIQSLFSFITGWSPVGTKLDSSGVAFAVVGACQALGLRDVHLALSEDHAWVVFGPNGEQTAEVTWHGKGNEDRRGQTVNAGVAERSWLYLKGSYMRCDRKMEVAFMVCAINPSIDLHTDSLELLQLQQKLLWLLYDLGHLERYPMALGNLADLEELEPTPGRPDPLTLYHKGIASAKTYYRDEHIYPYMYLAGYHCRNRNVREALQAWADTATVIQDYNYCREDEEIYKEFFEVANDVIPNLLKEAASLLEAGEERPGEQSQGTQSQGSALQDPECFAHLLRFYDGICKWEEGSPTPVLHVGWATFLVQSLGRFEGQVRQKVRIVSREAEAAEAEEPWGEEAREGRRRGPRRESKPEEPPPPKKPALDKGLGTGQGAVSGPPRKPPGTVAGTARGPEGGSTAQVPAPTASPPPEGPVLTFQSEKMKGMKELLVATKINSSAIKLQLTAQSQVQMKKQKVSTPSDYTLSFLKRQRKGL
Method in brief: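 His-Menin (M1-L615, 150 nM) preincubated with compound 15 min at 25 °C in HEPES pH 7.5, 50 mM NaCl, 1 mM DTT, 0.01% BSA, then 15 nM FITC-MLL4-43 peptide added for 60 min at 25 °C. Fluorescence polarization read; IC50 from 4-parameter logistic fit, duplicates.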

[2] = tested on: MOLM-13 (carrying MLL-AF9); assay: Inhibition of proliferation of human tumor cells (Alamar Blue, 7 days), MOLM-13; format: cell-based; details: Homo sapiens, MOLM-13 cells (carrying MLL-AF9), method calls the value GI50
Source text: Experimental Example 2: Evaluation of Inhibitory Activity of Compounds Against Proliferation of Human Tumor Cells
• Human acute lymphoblastic leukemia cells MV-4-11, purchased from American Type Culture Collection, Catalog Number: CRL-9591; • Human acute myeloid leukemia cells MOLM-13, purchased from COBIOER BIOSCIENCES CO., LTD, Catalog Number: CBP60678; • Human acute myeloid leukemia cells KG-1a, purchased from American Type Culture Collection, Catalog Number: CCL-246.1; • Inverted Microscope, purchased from Olympus Tokyo; • Countess™ Automated Cell Counter, purchased from Invitrogen, Model: C10281; and • Multilabel Reader, purchased from Bio-Tek, Model: Synergy HT.
MV-4-11 cells were cultured in an IMDM medium containing 10% fetal bovine serum, KG-a cells were cultured in an IMDM medium containing 20% fetal bovine serum, or MOLM-13 cells were cultured in an RPMI-1640 medium containing 20% fetal bovine serum, each supplemented with 100 U·mL^-1 penicillin and 100 µg·mL^-1 streptomycin. These cells were cultured at 37°C with 5% CO2. The suspensions of individual cell lines were prepared in their respective media and seeded into 96-well plates at a density of 4,000 cells/well for MV-4-11 and MOLM-13 cells, or 3,000 cells/well for KG-1a cells. On the day of the experiment, a compound stock solution was diluted in a 3-fold or 4-fold gradient using DMSO. Each gradient-diluted stock solution was then further diluted 250-fold with a complete medium to prepare a series of working solutions at different concentrations. Subsequently, 100 µL of working solution (containing a 2-fold concentration series of the test compound) was added to each well, with duplicate wells set up for each concentration.
Seven days after compound addition (on Day 7), an Alamar Blue assay reagent (MCE, HY-111391 / CS-0040317) was added to measure the fluorescence intensity in each well. Wells containing the cells in the growth medium supplemented with 0.1% DMSO (Day 7) served as high-read control wells. The readouts from the wells containing the cells in the growth medium supplemented with 0.1% DMSO on the day of compound addition (Day 0) served as low-reading control well. GraphPad Prism software was used to calculate the concentration required to inhibit 50% of cell proliferation (GI50), which serves as a cell proliferation inhibition activity index.

[3] = fluorescence polarization, read-out: Menin-MLL IC50
[4] = Menin-MLL IC50, fluorescence polarization

CCN(C(=O)c1cc(F)ccc1-c1cc(CC2CN([C@H](CCCN3CCN(CCO)CC3)C(C)C)C2)n2c(C)cncc12)C(C)C [Example 470, N-ethyl-5-fluoro-2-[6-({1-[(3R)-6-[4-(2-hydroxylethyl)piperazin-1-yl]-2-methylhexan-3-yl]azacyclobutan-3-yl}methyl)-4-methylpyrrolo[1,2-a]pyrazin-8-yl]-N-(isopropyl)benzamide]
IC50 [1, 3]: 0.9 nM | IC50 ([2]; 168 h): 3.8 nM

CCN(C(=O)c1cc(F)ccc1-c1cc(C2CN([C@H](CCCN3CCC(NC(C)=O)CC3)C(C)C)C2)cc2c1cnn2C)C(C)C [Example 405]
IC50 [1, 3]: 1.6 nM | IC50 ([2]; 168 h): 7.2 nM

CCN(C(=O)c1cc(F)ccc1-c1cc(C2CN([C@H](CCCN3CCC(NS(=O)(=O)CC)CC3)C(C)C)C2)cn2c(C)ncc12)C(C)C [Example 408, 2-(6-{1-[(3R)-6-(4-ethanesulfonamidopiperidin-1-yl)-2-methylhexan-3-yl]azacyclobutan-3-yl}-3-methylimidazo[1,5-a]pyridin-8-yl)-N-ethyl-5-fluoro-N-(isopropyl)benzamide]
IC50 [1, 3]: 1.7 nM | IC50 ([2]; 168 h): 4.2 nM

CCN(C(=O)c1cc(F)ccc1-c1cc(C2CN([C@H](CCCN3CCN[C@H](COC)C3)C(C)C)C2)cn2c(C)ncc12)C(C)C [Example 503]
IC50 [1, 3]: 1 nM | IC50 ([2]; 168 h): 8.5 nM

CCN(C(=O)c1cc(F)ccc1-c1cc(C2CN([C@H](CCCN3CCN(C)[C@H](CO)C3)C(C)C)C2)cn2c(C)ncc12)C(C)C [Example 507]
IC50 [1, 3]: 1 nM | IC50 ([2]; 168 h): 15 nM

CCN(C(=O)c1cc(F)ccc1-c1cc(C2CN([C@H](CCCN3CCN(CCF)CC3)C(C)C)C2)cn2c(C)ncc12)C(C)C [Example 395]
IC50 [1, 3]: 2 nM | IC50 ([2]; 168 h): 6.1 nM

CCN(C(=O)c1cc(F)ccc1-c1cc(C2CN([C@H](CCCN3CCC(C#N)(CO)CC3)C(C)C)C2)cn2c(C)ncc12)C(C)C [Example 481]
IC50 [1, 4]: 1.9 nM | IC50 ([2]; MOLM-13, 168 h): 5.5 nM

CCN(C(=O)c1cc(F)ccc1-c1cc(C2CN([C@H](CCCN3CCN(C[C@@H](O)CO)CC3)C(C)C)C2)cc2c1cnn2C)C(C)C [Example 413]
IC50 [1, 3]: 6.9 nM | IC50 ([2]; 168 h): 45 nM

CCN(C(=O)c1cc(F)ccc1-c1cc(C2CN([C@H](CCCN3CCN(C(=O)C4(C#N)COC4)CC3)C(C)C)C2)cn2c(C)ncc12)C(C)C [Example 495]
IC50 [1, 3]: 2.4 nM | IC50 ([2]; 168 h): 27 nM

CCN(C(=O)c1cc(F)ccc1-c1cc(C2CN([C@H](CCCN3CCN(CC(=O)N(C)C)CC3)C(C)C)C2)cn2c(C)ncc12)C(C)C [Example 473]
IC50 [1, 3]: 1.1 nM | IC50 ([2]; 168 h): 16 nM

CCN(C(=O)c1cc(F)ccc1-c1cc(C2CN([C@H](CCCN3CCN[C@@H](COC)C3)C(C)C)C2)cn2c(C)ncc12)C(C)C [Example 502]
IC50 [1, 3]: 0.9 nM | IC50 ([2]; 168 h): 9.8 nM

Cc1ncc2c(-c3ccc(F)cc3C(=O)N(C(C)C)C(C)C)cc(C3CN([C@H](CCCN4CCN(CCO)CC4)C(C)C)C3)cn12 [Example 463, 5-fluoro-2-(6-{1-[(3R)-6-[4-(2-hydroxylethyl)piperazin-1-yl]-2-methylhexan-3-yl]azacyclobutan-3-yl}-3-methyl-imidazo[1,5-a]pyridin-8-yl)-N,N-di(isopropyl)benzamide]
IC50 [1, 3]: 2.3 nM | IC50 ([2]; 168 h): 4.3 nM

Cc1nc(F)c2c(-c3ccc(F)cc3C(=O)N3CCOC[C@H]3C)cc(C3CN([C@H](CCCN4C5CC4CN(C)C5)C(C)C)C3)cn12 [Example 384]
IC50 [1, 3]: 2.7 nM | IC50 ([2]; 168 h): 4.1 nM

CCN(C(=O)c1cc(F)ccc1-c1cc(C2CN([C@H](CN3CCN(C[C@H](O)CO)CC3)C(C)C)C2)cc2c1cnn2C)C(C)C [Example 440]
IC50 [1, 4]: 8.9 nM | IC50 ([2]; MOLM-13, 168 h): 56 nM

CCN(C(=O)c1cc(F)ccc1-c1cc(C2CN(C(CCCN3CCN(C)C(COC)C3)C(C)C)C2)cn2c(C)ncc12)C(C)C (stereo not shown) [Example 508]
IC50 [1, 3]: 1.1 nM | IC50 ([2]; 168 h): 11 nM

CCN(C(=O)c1cc(F)ccc1-c1cc(C2CN(C(CC3COCCO3)C(C)C)C2)cn2c(C)ncc12)C(C)C (stereo not shown) [Example 445, 2-(6-{1-[1-(1,4-dioxane-2-yl)-3-methylbutan-2-yl]azacyclobutan-3-yl}-3-methylimidazo[1,5-a]pyridin-8-yl)-N-ethyl-5-fluoro-N-(isopropyl)benzamide]
IC50 [1, 3]: 20 nM | IC50 ([2]; 168 h): 68 nM

CCN(C(=O)c1cc(F)ccc1-c1cc(C2CN([C@H](CCCN3CCN(C4(C(N)=O)COC4)CC3)C(C)C)C2)cn2c(C)ncc12)C(C)C [Example 475, 3-{4-[(4R)-4-[3-(8-{2-[ethyl(isopropyl)aminoformyl]-4-fluorophenyl}-3-methylimidazo[1,5-a]pyridin-6-yl)azacyclobutan-1-yl]-5-methylhexyl]piperazin-1-yl}oxacyclobutan-3-formamide]
IC50 [1, 3]: 1 nM | IC50 ([2]; 168 h): 25 nM

CCN(C(=O)c1cc(F)ccc1-c1cc(C2CN([C@H](CCCN3CCC(NS(=O)(=O)CC)CC3)C(C)C)C2)cc2c1cnn2C)C(C)C [Example 411]
IC50 [1, 3]: 2.7 nM | IC50 ([2]; 168 h): 12 nM

CCN(C(=O)c1cc(F)ccc1-c1cc(C2CN([C@H](CCCN3CCOC[C@@H]3CO)C(C)C)C2)cn2c(C)ncc12)C(C)C [Example 452]
IC50 [1, 3]: 5.3 nM | IC50 ([2]; 168 h): 39 nM

CCN(C(=O)c1cc(F)ccc1-c1cc(C2CN([C@H](CN3CCN(C[C@H](O)CO)CC3)C(C)C)C2)cn2c(C)ncc12)C(C)C [Example 428]
IC50 [1, 3]: 3.7 nM | IC50 ([2]; 168 h): 52 nM

CCN(C(=O)c1cc(F)ccc1-c1cc(C2CN([C@H](CN3CCN(C(CO)CO)CC3)C(C)C)C2)cn2c(C)ncc12)C(C)C [Example 435]
IC50 [1, 3]: 4.9 nM | IC50 ([2]; 168 h): 26 nM

CCN1CCN(CCC[C@H](C(C)C)N2CC(c3cc(-c4ccc(F)cc4C(=O)N(CC)C(C)C)c4cnc(C)n4c3)C2)CC1 [Example 377]
IC50 [1, 3]: 2 nM | IC50 ([2]; 168 h): 1.7 nM

Cc1nc(F)c2c(-c3ccc(F)cc3C(=O)N3CCOC[C@H]3C)cc(C3CN([C@H](CCCN4CC5CC(C4)N5C)C(C)C)C3)cn12 [Example 349]
IC50 [1, 3]: 4 nM | IC50 ([2]; 168 h): 16.5 nM

CCN(C(=O)c1cc(F)ccc1-c1cc(OC2CN(C(CCCN3CCN(CCO)CC3)C(C)C)C2)n2c(C)cncc12)C(C)C (stereo not shown) [Example 488, N-ethyl-5-fluoro-2-{6-[(1-{6-[4-(2-hydroxyethyl)piperazin-1-yl]-2-methylhexan-3-yl}azacyclobutan-3-yl)oxy]-4-methylpyrrolo[1,2-a]pyrazin-8-yl}-N-(isopropyl)benzamide]
IC50 [1, 3]: 3.4 nM | IC50 ([2]; 168 h): 19 nM

Cc1nc(F)c2c(-c3ccc(F)cc3C(=O)N3CCOC[C@H]3C)cc(C3CN([C@H](CCCN4CCN(CC(F)F)CC4)C(C)C)C3)cn12 [Example 362]
IC50 [1, 4]: 4.6 nM | IC50 ([2]; MOLM-13, 168 h): 2.8 nM

Cc1nc(F)c2c(-c3ccc(F)cc3C(=O)N3CCOC[C@H]3C)cc(C3CN(C(CC[C@H]4COCCN4)C(C)C)C3)cn12 (stereo partly drawn) [Example 373, (3R)-4-{5-fluoro-2-[1-fluoro-3-methyl-6-(1-{4-methyl-1-[(3S)-morpholin-3-yl]pentan-3-yl}azacyclobutan-3-yl)imidazo[1,5-a]pyridin-8-yl]benzoyl}-3-methylmorpholine]
IC50 [1, 3]: 6.4 nM | IC50 ([2]; 168 h): 6 nM
